How the values were obtained:
CDK2/CycE = molecular target: T1, CDK2/CycE (Homo sapiens, UniProt P24941); experiment: CDK2/CycE kinase assay (TR-FRET); type: biochemical; conditions: avg, read-out: CDK2 avg (IC50 [mol/l])
T1 construct: GST; purchased ProQinase GmbH (Freiburg, Germany); host or cells: insect cells (Sf9)
Method in brief: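 GST-tagged human CDK2 and CycE from Sf9 cells, preincubated 15 min with compound, then 25 min at 22° C. with 10 μM ATP and 0.75 μM biotinylated Rb-derived peptide (final). Phospho-substrate read by TR-FRET (anti-pRB pSer807/pSer811, Eu anti-mouse IgG, streptavidin-XL665), 665/620 nm ratio, normalised to no-inhibitor and no-enzyme controls.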

[1] = tested on: human cervical tumor cell line HeLa (ATCC CCL-2); experiment: SAC-Formation - Nocodazole-Induced Assay; type: cell-based; conditions: Homo sapiens, HeLa, 24 h, HeLa cells, nocodazole 0.1 μg/ml together with test compound, decrease of mitotic cells (phospho-histone H3 Ser10)
Method in brief: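 HeLa cells, plated overnight, were treated 24 h at 37 °C with nocodazole (0.1 μg/ml final) plus test compound (0.005–20 μM, 0.5% DMSO) added at the same time. After fixation, anti-phospho-histone H3 Ser10 and Hoechst staining gave the mitotic cell fraction by imaging. Values came from four-parameter Hill fits.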

Compound | IC50 (CDK2/CycE) [µM] | IC50 [1] [nM]
Cc1nsc(Nc2cnc(C(F)(F)F)cn2)c1C(=O)Nc1ccc(OCCNCCF)nc1 [Example 321, N-(6-{2-[(2-fluoroethyl)amino]ethoxy}pyridin-3-yl)-3-methyl-5-{[5-(trifluoromethyl)pyrazin-2-yl]amino}-1,2-thiazole-4-carboxamide] | ≥ 20 | 140
Cc1nsc(Nc2cnc(C(F)(F)F)cn2)c1C(=O)Nc1ccc(OCCNCC(F)(F)F)nc1 [Example 322, 3-methyl-N-(6-{2-[(2,2,2-trifluoroethyl)amino]ethoxy}pyridin-3-yl)-5-{[5-(trifluoromethyl)pyrazin-2-yl]amino}-1,2-thiazole-4-carboxamide] | ≥ 20 | 69
